{"source": "patent US9669049B2", "about": "“Compositions comprising gamma retrovirus vectors and methods of treating proliferative disorders” (Tocagen Inc., priority 2010, dated 2017)", "key": {"[1]": {"tested_on": "recurrent anaplastic oligodendroglioma", "assay": "Patient dog with spontaneous recurrent malignant glioma", "type": "in vivo", "conditions": "second cycle, 160 mg/kg/day, after fifth day", "experimental": "The tumor measured approximately 13 cm^3, and caused major lateral ventricle compression and significant midline shift. […] ProHance® (gadoteridol) was added to Toca 511 prior to injection to allow visualization of delivery by MRI. The volume of distribution of the vector was estimated to be approximately 10-12% of the tumor volume.\nThe dog was treated with 5-FC at a divided dose of 130 mg/kg/day, by mouth, three times daily with food for 5 days. The dose was increased to 160 mg/kg/day for 2 more days (7 days of 5-FC total). […] After 21 days of viral spread, a second cycle of 5-FC was initiated at the higher dose of 160 mg/kg/day (divided, three times a day with food).\nThe subject became more alert, active and remained clinically stable 13 weeks after injection of vector. The subject succumbed to a gastro-intestinal bleed at 15+ weeks, related to the extended administration of high dose steroids, and unrelated to the tumor. The estimated lifespan of the dog was no more than 3-4 weeks at the time of initial injection of the vector."}, "[2]": {"tested_on": "cultured human glioma cells", "type": "cell-based", "parameters": "key: +: positive or negative effects have been observed"}, "Tu2449 cells": {"tested_on": "Tu2449 cells", "assay": "Bortezomib plus vector, intracranial Tu2449 glioma survival", "type": "in vivo, mouse", "conditions": "Bortezomib 1 mg/kg IP every 7 days; vector 6.3E4 TU/g IC; 5-FC cycles", "experimental": "On Day 0 and every 7 days, Groups 3 and 4 received Bortezomib treatment (1 mg/kg; 25 μg/mouse) IP. […] Survival was assessed for at least 4 cycles."}, "[3]": {"tested_on": "cultured human plasmacytoid dendritic cells", "assay": "IFN production after in vitro stimulation of cultured human plasmacytoid dendritic cells", "type": "cell-based", "parameters": "key: +: positive or negative effects have been observed; −: positive or negative effects have been observed"}, "[4]": {"tested_on": "cultured human glioma cells", "assay": "Initial viral spread in cultured human glioma cells by flow cytometric analysis", "type": "cell-based"}, "TLR3, 7, 8, 9": {"tested_on": "TLR3, 7, 8, 9", "conditions": "cited from earlier work"}, "T98G": {"tested_on": "T98G", "conditions": "0.1 and 1 μM, 28 days"}, "U-87MG": {"tested_on": "U-87MG", "conditions": "0.1 and 1 μM, 28 days"}, "[5]": {"tested_on": "intracranial tumor models", "assay": "In vivo screening, IC tumor model", "conditions": "mouse"}, "[6]": {"assay": "Pilot study of white blood cell count suppression", "type": "in vivo", "conditions": "400 mg/kg SC", "experimental": "(§1) Dosing Procedures. For Group 3 only, methylprednisolone acetate (Depo-Medrol), 400 mg/kg, was administered subcutaneously (SC) at day −3."}, "[7]": {"assay": "Vector copies in tissues after intracranial injection with or without steroid", "type": "in vivo, mouse", "conditions": "right cerebrum, day 10; p<0.0001", "experimental": "as §1\nToca 511 or vehicle was administered by stereotaxic injection into the right frontal lobe. After anesthetizing the mice and preparing the skull, a small burr hole was drilled through the bone at coordinates AP=+0.5 mm and ML=−2.5 mm from bregma. […] After a hold of 5 minutes, the syringe was withdrawn, the hole sealed with bone wax, the skin closed, and the animal recovered from surgery. To minimize discomfort, ketoprofen was administered SC.\nTissue collection. On day 10, all animals were euthanized and selected tissues and fluids collected using disposable equipment to minimize possible cross-contamination of vector negative by vector positive tissues. […] Assays were performed in triplicate."}, "parental CT26 cells": {"tested_on": "parental CT26 cells", "assay": "Viral replication kinetics in CT26 cells with exogenous IFNα", "conditions": "1,340 units/mL daily; MOI 0.1 and 1"}, "parental Tu2449 cells": {"tested_on": "parental Tu2449 cells", "assay": "Viral replication kinetics in Tu2449 cells with exogenous IFNβ", "conditions": "500 units/mL daily; MOI 0.1 and 1"}}, "note": "Where two headings read alike, the source gives them in different places.", "data": [{"molecule": "Nc1nc(=O)[nH]cc1F", "note": "[5-FC, 5-fluorocytosine]", "values": [{"measurement": "adverse event stopping the drug", "setting": "[1]", "result": "development of rash"}]}, {"molecule": "O=C(NCCCNc1nc(Nc2cccc(NC(=O)N3CCCC3)c2)ncc1I)c1cccs1", "note": "[BX795]", "values": [{"measurement": "activity or benefit observed in the screening experiments", "setting": "RRV", "result": "activity was observed"}, {"measurement": "Efficacy", "setting": "[2]", "result": "+"}]}, {"molecule": "CC(C)C[C@H](NC(=O)[C@H](Cc1ccccc1)NC(=O)c1cnccn1)B(O)O", "note": "[Bortezomib]", "values": [{"measurement": "activity or benefit observed in the screening experiments", "setting": "RRV", "result": "activity was observed"}, {"measurement": "survival of Bortezomib and vector compared to vector, vehicle, or Bortezomib alone", "setting": "Tu2449 cells", "result": "statistically significant survival advantage"}, {"measurement": "Efficacy", "setting": "[3]", "result": "+"}]}, {"molecule": "C#Cc1cccc(Nc2ncnc3cc(OC)c(OCCCCCCC(=O)NO)cc23)c1", "note": "[CUDU-101]", "values": [{"measurement": "Efficacy", "setting": "[4]", "result": "−"}]}, {"molecule": "CCN(CC)CCCC(C)Nc1ccnc2cc(Cl)ccc12", "note": "(centres unmarked) [Chloroquine]", "values": [{"measurement": "IC50", "setting": "TLR3, 7, 8, 9; read-out: Dosage/IC50, head does not say whether dosage or IC50", "result": 20, "unit": "µM"}, {"measurement": "Dosage/IC50", "setting": "TLR3, 7, 8, 9; same value in mass units", "result": 10, "unit": "µg/mL"}]}, {"molecule": "N#CCNC(=O)c1ccc(-c2ccnc(Nc3ccc(N4CCOCC4)cc3)n2)cc1", "note": "[Cyt387]", "values": [{"measurement": "Efficacy", "setting": "[4]", "result": "−"}]}, {"molecule": "C[C@@H]1C[C@H]2[C@@H]3CCC4=CC(=O)C=C[C@]4(C)[C@@]3(F)[C@@H](O)C[C@]2(C)[C@@]1(O)C(=O)CO", "note": "[Dexamethasone]", "values": [{"measurement": "Efficacy", "setting": "[4]", "result": "+"}, {"measurement": "cell toxicity", "setting": "T98G", "result": "No cell toxicity was observed"}, {"measurement": "cell toxicity", "setting": "U-87MG", "result": "No cell toxicity was observed"}]}, {"molecule": "Cc1cc(Cl)ccc1OCCCC(=O)NO", "note": "[Droxinostat]", "values": [{"measurement": "Efficacy", "setting": "[4]", "result": "−"}]}, {"molecule": "CCN(CC)Cc1ccc2cc(COC(=O)Nc3ccc(C(=O)NO)cc3)ccc2c1", "note": "[ITF2357]", "values": [{"measurement": "Efficacy", "setting": "[4]", "result": "−"}]}, {"molecule": "O=C1Nc2ccc3ncsc3c2/C1=C/c1cnc[nH]1", "note": "[Imidazolo-oxindole]", "values": [{"measurement": "Efficacy", "setting": "[4]", "result": "−"}]}, {"molecule": "CCc1c2c(nc3ccc(OC(=O)N4CCC(N5CCCCC5)CC4)cc13)-c1cc3c(c(=O)n1C2)COC(=O)[C@]3(O)CC", "note": "[Irinotecan]", "values": [{"measurement": "Outcome summary IC tumor model", "setting": "[5]", "result": "No survival improvement"}]}, {"molecule": "Nc1ccccc1NC(=O)c1ccc(CNC(=O)OCc2cccnc2)cc1", "note": "[MS-275]", "values": [{"measurement": "Efficacy", "setting": "[4]", "result": "−"}, {"measurement": "activity or benefit observed in the screening experiments", "setting": "RRV", "result": "activity was observed"}, {"measurement": "Efficacy", "setting": "[2]", "result": "+"}]}, {"molecule": "CC#C[C@]1(O)CC[C@H]2[C@@H]3CCC4=CC(=O)CCC4=C3[C@@H](c3ccc(N(C)C)cc3)C[C@@]21C", "note": "[Mifepristone]", "values": [{"measurement": "Efficacy", "setting": "[4]", "result": "+"}, {"measurement": "activity or benefit observed in the screening experiments", "setting": "RRV", "result": "activity was observed"}]}, {"molecule": "CC(=O)OCC(=O)[C@@]1(O)CC[C@H]2[C@@H]3C[C@H](C)C4=CC(=O)C=C[C@]4(C)[C@H]3[C@@H](O)C[C@@]21C", "note": "[methylprednisolone acetate]", "values": [{"measurement": "duration of white blood cell count suppression below normal range", "setting": "[6]", "result": "at least 10 days"}, {"measurement": "increase of vector copies with steroids over no steroid", "setting": "[7]", "result": "more than 40 fold"}]}, {"molecule": "IFNα", "values": [{"measurement": "effect on viral spread (% GFP positive cells)", "setting": "parental CT26 cells", "result": "attenuates viral spread"}]}, {"molecule": "IFNβ: Recombinant mouse IFNβ (PBL Interferon Source) (protein, UniProt P01575 22-182, looked up) Interferon beta: INYKQLQLQERTNIRKCQELLEQLNGKINLTYRADFKIPMEMTEKMQKSYTAFAIQEMLQNVFLVFRNNFSSTGWNETIVVRLLDELHQQTVFLKTVLEEKQEERLTWEMSSTALHLKSYYWRVQRYLKLMKYNSYAWMVVRAEIFRNFLIIRRLTRNFQN", "values": [{"measurement": "effect on viral spread (% GFP positive cells)", "setting": "parental Tu2449 cells", "result": "attenuates viral spread"}]}]}
